How the values were obtained:
SMYD3 = target: T1, SMYD3 (Homo sapiens, UniProt Q9H7B4); assay: SMYD3 Scintillation Proximity Assay (SPA), methylation of MAP3K2 Peptide; type: biochemical; settings: SMYD3 full length enzyme 10 nM, 3H-SAM 125 nM, MAP3K2 Peptide 1 μM, 120 min at 22° C.
T1 construct: The SMYD3 full length enzyme was produced in-house by expression (with an N-terminal 6×His tag) in E. coli; 6xHis (N); made in house; host or cells: E. coli
T1 sequence (Q9H7B4 1-428): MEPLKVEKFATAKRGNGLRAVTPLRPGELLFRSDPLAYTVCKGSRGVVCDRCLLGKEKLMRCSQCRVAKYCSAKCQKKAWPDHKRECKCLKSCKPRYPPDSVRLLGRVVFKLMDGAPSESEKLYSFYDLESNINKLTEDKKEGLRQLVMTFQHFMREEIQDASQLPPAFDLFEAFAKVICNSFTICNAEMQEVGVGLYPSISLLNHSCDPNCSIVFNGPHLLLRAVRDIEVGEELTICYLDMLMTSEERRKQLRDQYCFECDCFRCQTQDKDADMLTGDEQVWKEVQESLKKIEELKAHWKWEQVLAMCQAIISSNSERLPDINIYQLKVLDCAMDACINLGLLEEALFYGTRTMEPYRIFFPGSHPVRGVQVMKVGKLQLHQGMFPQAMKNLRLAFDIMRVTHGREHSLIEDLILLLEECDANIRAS
Protocol: SMYD3 Scintillation Proximity Assay (SPA)
The SMYD3 full length enzyme was produced in-house by expression (with an N-terminal 6×His tag) in E. coli and purification by affinity chromatography on a Ni-NTA Sepharose column followed by a size exclusion chromatography step on a Superdex 200 16/60 column (GE Healthcare).
To this end, 100-fold concentrated compound solutions (in DMSO) were previously prepared by serial dilution (1:3.4) of 2 mM stocks in a clear low volume 384-well source microtiter plate (Greiner Bio-One), from which 100 nl of compounds were transferred into a white low volume test microtiter plate from the same supplier. […] The resulting mixture (5 μl final volume) was shortly centrifuged (2 min., 1500 rpm) and incubated at 22° C. during 120 min. […] Plates containing the stopped reaction were sealed with transparent adhesive foil (Perkin Elmer), centrifuged (2 min., 1500 rpm), and further incubated overnight at 4° C. in order to allow the SPA signals to develop. Subsequently, the amount of product was evaluated by measuring the energy transfer from the […] emitted by the 3H-labeled substrate to the scintillator co-polymerized in the bead's matrix, using a TopCount NXT scintillation counter (Packard) with the standard instrument settings for this purpose. The resulting scintillation counts were taken as indicator for the amount of methylated peptide per well. […] IC50 values were calculated by fitting the normalized inhibition data to a 4-parameter logistic equation using the XLFit analysis software (IDBS).

[1] = target: T2, untagged full length SMYD3 (Homo sapiens, UniProt Q9H7B4); assay: Thermal Shift Assay; type: binding; settings: protein 1.5-2.0 μM, 5× SYPRO Orange, scans 25° C. to 80° C.; control 4% DMSO
T2 construct: As protein untagged full length SMYD3 was used
T2 sequence (Q9H7B4 1-428): T1 sequence (Q9H7B4 1-428)
Protocol: Thermal Shift Assay Thermal melting experiments were performed with a ViiA™ Real-Time PCR machine (Thermo Fisher Scientific) in 384-well microliter plate with a final volume of 5 μL. Melting curves were obtained at a protein concentration of 1.5-2.0 μM and 5× SYPRO Orange (Invitrogen) using buffer containing 20 mM Tris pH7.0; 150 mM NaCl; 1.0 mM DTT. As protein untagged full length SMYD3 was used. […] As control 4% DMSO was used. Scans were measured from 25° C. to 80° C. at a scanning rate of 0.1° C./sec. All TSA data were analyzed by using Genedata Assay Analyzer.

Row | Structure (SMILES) | IC50 (SMYD3) [nM] | Thermal shift assay (° C.) [1] [°C]
1 | C[C@H]1CC(=O)Nc2cc(C(=O)NCCC3CC3)ccc2N1C(=O)N1CC[C@@H](N)C1.Cl [Example 39, (2S)-1-{[(3R)-3-aminopyrrolidin-1-yl]carbonyl}-N-(2-cyclopropylethyl)-2-methyl-4-oxo-2,3,4,5-tetrahydro-1H-1,5-benzodiazepine-7-carboxamide hydrochloride (1:1)] | 584 | 7.25
2 | C[C@H]1CC(=O)Nc2cc(C(=O)NCCC3CC3)ccc2N1C(=O)N1CCNCC1 [Example 41, (2S)—N-(2-cyclopropylethyl)-2-methyl-4-oxo-1-(piperazin-1-ylcarbonyl)-2,3,4,5-tetrahydro-1H-1,5-benzodiazepine-7-carboxamide] | 265 | 7.22

Reference: US11161825B2, “4-oxo-2,3,4,5-tetrahydro-1H-1,5-benzodiazepine-7-carboxamides” (Bayer Aktiengesellschaft, priority 2017, dated 2021)
